Results reported in patent US20260176320A1, “MODULATORS OF G-PROTEIN COUPLED RECEPTORS” (priority 2018, published 2026).
Where two headings read alike, the source gives them in different places.

Tests used:
GLP-1R = GLP-1R (Homo sapiens, UniProt P43220); assay: HitHunter cAMP assay (GLP-1R); type: cell-based; conditions: cAMP; for Emax: read-out: (Emax) GLP-1R
Procedure, shortened: (§1)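 Duplicate 22-point, 2-fold agonist titrations applied to receptor-expressing suspension cells in IBMX-containing HBSS; 30 min RT stimulation. Read: luminescent cAMP immunocompetition after O/N dark incubation.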

GIP-R = target: T1, GIP-R (Homo sapiens, UniProt P48546); assay: HitHunter cAMP assay (GIP-R); type: cell-based; conditions: cAMP; for Emax: read-out: (Emax) GIP-R
T1 sequence (P48546 22-466): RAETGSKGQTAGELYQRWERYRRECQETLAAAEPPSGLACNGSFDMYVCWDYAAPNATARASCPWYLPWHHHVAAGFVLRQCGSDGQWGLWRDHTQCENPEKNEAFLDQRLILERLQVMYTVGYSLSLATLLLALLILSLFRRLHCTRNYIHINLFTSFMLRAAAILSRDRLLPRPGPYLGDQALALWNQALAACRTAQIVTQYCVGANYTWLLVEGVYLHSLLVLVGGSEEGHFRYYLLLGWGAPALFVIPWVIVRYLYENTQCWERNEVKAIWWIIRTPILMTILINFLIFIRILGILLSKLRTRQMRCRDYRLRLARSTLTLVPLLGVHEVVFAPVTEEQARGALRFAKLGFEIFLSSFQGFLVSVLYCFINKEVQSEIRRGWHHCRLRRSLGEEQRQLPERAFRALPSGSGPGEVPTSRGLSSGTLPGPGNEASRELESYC
Procedure, shortened: as §1

[1] = Table 3, read-out: EC50 GLP-1R/nM
[2] = Table 3A, read-out: EC50 GLP-1R/nM
[3] = Table 3, read-out: EC50 GIP-R/nM
[4] = Table 3A, read-out: EC50 GIP-R/nM

Chain of GLP-1R (P43220 24-463): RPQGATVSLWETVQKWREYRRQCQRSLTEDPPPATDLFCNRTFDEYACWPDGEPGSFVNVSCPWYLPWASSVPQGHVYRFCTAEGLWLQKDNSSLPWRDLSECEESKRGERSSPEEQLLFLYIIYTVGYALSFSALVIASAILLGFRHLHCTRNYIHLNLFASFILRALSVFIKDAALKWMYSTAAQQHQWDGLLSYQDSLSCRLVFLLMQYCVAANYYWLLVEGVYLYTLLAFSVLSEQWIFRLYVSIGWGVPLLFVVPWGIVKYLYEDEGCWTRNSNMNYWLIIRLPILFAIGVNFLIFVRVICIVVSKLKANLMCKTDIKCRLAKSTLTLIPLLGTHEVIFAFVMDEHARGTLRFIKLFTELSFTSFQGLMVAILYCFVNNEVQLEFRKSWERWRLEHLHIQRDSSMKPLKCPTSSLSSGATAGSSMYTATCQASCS

SMILES	Emax (GLP-1R; Table 3)	EC50 (GLP-1R; [1])	Emax (GLP-1R; Table 3A)	EC50 (GLP-1R; [2])	Emax (GIP-R; Table 3)	EC50 (GIP-R; [3])	Emax (GIP-R; Table 3A)	EC50 (GIP-R; [4])	EC50 (GLP-1R; EC50 GLP-1R/nM, Table 3A)	EC50 (GIP-R; EC50 GIP-R/nM, Table 3A)
CCCCCCCCCCCCCCCC(=O)N[C@@H](CCC(=O)NCCCC[C@H](NC(=O)[C@H](CO)NC(=O)[C@@H]1CCCN1C(=O)[C@@H]1CCCN1C(=O)[C@@H]1CCCN1C(=O)[C@H](C)NC(=O)CNC(=O)[C@H](CO)NC(=O)[C@H](CO)NC(=O)[C@@H]1CCCN1C(=O)CNC(=O)CNC(=O)[C@H](C)NC(=O)[C@H](CC(C)C)NC(=O)[C@H](CC(C)C)NC(=O)[C@H](Cc1c[nH]c2ccccc12)NC(=O)[C@H](CC(N)=O)NC(=O)[C@@H](NC(=O)[C@H](Cc1ccccc1)NC(=O)[C@H](CCC(=O)O)NC(=O)C(C)(C)NC(=O)[C@H](C)NC(=O)[C@H](C)NC(=O)[C@H](CCC(N)=O)NC(=O)[C@H](CCCCN)NC(=O)[C@H](CC(=O)O)NC(=O)[C@H](CC(C)C)NC(=O)[C@H](Cc1ccc(O)cc1)NC(=O)[C@@H](NC(=O)[C@H](CO)NC(=O)[C@H](Cc1ccc(O)cc1)NC(=O)[C@H](CC(=O)O)NC(=O)[C@H](CO)NC(=O)[C@@H](NC(=O)[C@H](Cc1ccccc1)NC(=O)[C@@H](NC(=O)CNC(=O)[C@H](CCC(=O)O)NC(=O)CSCC(=O)NCCN1C(=O)CCN1C)[C@@H](C)O)[C@@H](C)O)[C@@H](C)CC)C(C)C)C(N)=O)C(=O)O [Compound 55]	104%	0.1 to 1 nM	104%	0.1 to 1 nM	47%	1 to 10 nM	47%	1 to 10 nM		
CCCCCCCCCCCCCCCC(=O)N[C@@H](CCC(=O)NCCCC[C@H](NC(=O)[C@H](CO)NC(=O)[C@@H]1CCCN1C(=O)[C@@H]1CCCN1C(=O)[C@@H]1CCCN1C(=O)[C@H](C)NC(=O)CNC(=O)[C@H](CO)NC(=O)[C@H](CO)NC(=O)[C@@H]1CCCN1C(=O)CNC(=O)CNC(=O)[C@H](C)NC(=O)[C@H](CC(C)C)NC(=O)[C@H](CC(C)C)NC(=O)[C@H](Cc1c[nH]c2ccccc12)NC(=O)[C@H](CC(N)=O)NC(=O)[C@@H](NC(=O)[C@H](Cc1ccccc1)NC(=O)[C@H](CCC(=O)O)NC(=O)C(C)(C)NC(=O)[C@H](C)NC(=O)[C@H](C)NC(=O)[C@H](CCC(N)=O)NC(=O)[C@H](CCCCN)NC(=O)[C@H](CC(=O)O)NC(=O)[C@H](CC(C)C)NC(=O)[C@H](Cc1ccc(O)cc1)NC(=O)[C@@H](NC(=O)[C@H](CO)NC(=O)[C@H](Cc1ccc(O)cc1)NC(=O)[C@H](CC(=O)O)NC(=O)[C@H](CO)NC(=O)[C@@H](NC(=O)[C@H](Cc1ccccc1)NC(=O)[C@@H](NC(=O)CNC(=O)[C@H](CCC(=O)O)NC(=O)CSCC(=O)NCCN1C(=O)NC(C)(C)C1=O)[C@@H](C)O)[C@@H](C)O)[C@@H](C)CC)C(C)C)C(N)=O)C(=O)O [Compound 87]	89%	1 to 10 nM	89%	1 to 10 nM	62%	1 to 10 nM	62%	1 to 10 nM		
CCCCCCCCCCCCCCCC(=O)N[C@@H](CCC(=O)NCCCC[C@H](NC(=O)[C@H](CO)NC(=O)[C@@H]1CCCN1C(=O)[C@@H]1CCCN1C(=O)[C@@H]1CCCN1C(=O)[C@H](C)NC(=O)CNC(=O)[C@H](CO)NC(=O)[C@H](CO)NC(=O)[C@@H]1CCCN1C(=O)CNC(=O)CNC(=O)[C@H](C)NC(=O)[C@H](CC(C)C)NC(=O)[C@H](CC(C)C)NC(=O)[C@H](Cc1c[nH]c2ccccc12)NC(=O)[C@H](CC(N)=O)NC(=O)[C@@H](NC(=O)[C@H](Cc1ccccc1)NC(=O)[C@H](CCC(=O)O)NC(=O)C(C)(C)NC(=O)[C@H](C)NC(=O)[C@H](C)NC(=O)[C@H](CCC(N)=O)NC(=O)[C@H](CCCCN)NC(=O)[C@H](CC(=O)O)NC(=O)[C@H](CC(C)C)NC(=O)[C@H](Cc1ccc(O)cc1)NC(=O)[C@@H](NC(=O)[C@H](CO)NC(=O)[C@H](Cc1ccc(O)cc1)NC(=O)[C@H](CC(=O)O)NC(=O)[C@H](CO)NC(=O)[C@@H](NC(=O)[C@H](Cc1ccccc1)NC(=O)[C@@H](NC(=O)CNC(=O)[C@H](CCC(=O)O)NC(=O)CSCC(=O)NCCN1C(=O)[C@@H]2CC[C@H]1C2)[C@@H](C)O)[C@@H](C)O)[C@@H](C)CC)C(C)C)C(N)=O)C(=O)O [Compound 291]			100%				60%		0.1 to 1 nM	1 to 10 nM
CCCCCCCCCCCCCCCC(=O)N[C@@H](CCC(=O)NCCCC[C@H](NC(=O)[C@H](CO)NC(=O)[C@@H]1CCCN1C(=O)[C@@H]1CCCN1C(=O)[C@@H]1CCCN1C(=O)[C@H](C)NC(=O)CNC(=O)[C@H](CO)NC(=O)[C@H](CO)NC(=O)[C@@H]1CCCN1C(=O)CNC(=O)CNC(=O)[C@H](C)NC(=O)[C@H](CC(C)C)NC(=O)[C@H](CC(C)C)NC(=O)[C@H](Cc1c[nH]c2ccccc12)NC(=O)[C@H](CC(N)=O)NC(=O)[C@@H](NC(=O)[C@H](Cc1ccccc1)NC(=O)[C@H](CCC(=O)O)NC(=O)C(C)(C)NC(=O)[C@H](C)NC(=O)[C@H](C)NC(=O)[C@H](CCC(N)=O)NC(=O)[C@H](CCCCN)NC(=O)[C@H](CC(=O)O)NC(=O)[C@H](CC(C)C)NC(=O)[C@H](Cc1ccc(O)cc1)NC(=O)[C@@H](NC(=O)[C@H](CO)NC(=O)[C@H](Cc1ccc(O)cc1)NC(=O)[C@H](CC(=O)O)NC(=O)[C@H](CO)NC(=O)[C@@H](NC(=O)[C@H](Cc1ccccc1)NC(=O)[C@@H](NC(=O)CNC(=O)[C@H](CCC(=O)O)NC(=O)CSCC(=O)NCCN1CC(=O)N(C)C1=O)[C@@H](C)O)[C@@H](C)O)[C@@H](C)CC)C(C)C)C(N)=O)C(=O)O [Compound 46]	100%	1 to 10 nM	100%	1 to 10 nM	46%	1 to 10 nM	46%	1 to 10 nM		
CCCCCCCCCCCCCCCC(=O)N[C@@H](CCC(=O)NCCCC[C@H](NC(=O)[C@H](CO)NC(=O)[C@@H]1CCCN1C(=O)[C@@H]1CCCN1C(=O)[C@@H]1CCCN1C(=O)[C@H](C)NC(=O)CNC(=O)[C@H](CO)NC(=O)[C@H](CO)NC(=O)[C@@H]1CCCN1C(=O)CNC(=O)CNC(=O)[C@H](C)NC(=O)[C@H](CC(C)C)NC(=O)[C@H](CC(C)C)NC(=O)[C@H](Cc1c[nH]c2ccccc12)NC(=O)[C@H](CC(N)=O)NC(=O)[C@@H](NC(=O)[C@H](Cc1ccccc1)NC(=O)[C@H](CCC(=O)O)NC(=O)C(C)(C)NC(=O)[C@H](C)NC(=O)[C@H](C)NC(=O)[C@H](CCC(N)=O)NC(=O)[C@H](CCCCN)NC(=O)[C@H](CC(=O)O)NC(=O)[C@H](CC(C)C)NC(=O)[C@H](Cc1ccc(O)cc1)NC(=O)[C@@H](NC(=O)[C@H](CO)NC(=O)[C@H](Cc1ccc(O)cc1)NC(=O)[C@H](CC(=O)O)NC(=O)[C@H](CO)NC(=O)[C@@H](NC(=O)[C@H](Cc1ccccc1)NC(=O)[C@@H](NC(=O)CNC(=O)[C@H](CCC(=O)O)NC(=O)CCNC(=O)CCCN1C(=O)c2ccccc2C1=O)[C@@H](C)O)[C@@H](C)O)[C@@H](C)CC)C(C)C)C(N)=O)C(=O)O [Compound 115]	91%	1 to 10 nM	91%	1 to 10 nM	67%	1 to 10 nM	67%	1 to 10 nM		
CCCCCCCCCCCCCCCC(=O)N[C@@H](CCC(=O)NCCCC[C@H](NC(=O)[C@H](CO)NC(=O)[C@@H]1CCCN1C(=O)[C@@H]1CCCN1C(=O)[C@@H]1CCCN1C(=O)[C@H](C)NC(=O)CNC(=O)[C@H](CO)NC(=O)[C@H](CO)NC(=O)[C@@H]1CCCN1C(=O)CNC(=O)CNC(=O)[C@H](C)NC(=O)[C@H](CC(C)C)NC(=O)[C@H](CC(C)C)NC(=O)[C@H](Cc1c[nH]c2ccccc12)NC(=O)[C@H](CC(N)=O)NC(=O)[C@@H](NC(=O)[C@H](Cc1ccccc1)NC(=O)[C@H](CCC(=O)O)NC(=O)C(C)(C)NC(=O)[C@H](C)NC(=O)[C@H](C)NC(=O)[C@H](CCC(N)=O)NC(=O)[C@H](CCCCN)NC(=O)[C@H](CC(=O)O)NC(=O)[C@H](CC(C)C)NC(=O)[C@H](Cc1ccc(O)cc1)NC(=O)[C@@H](NC(=O)[C@H](CO)NC(=O)[C@H](Cc1ccc(O)cc1)NC(=O)[C@H](CC(=O)O)NC(=O)[C@H](CO)NC(=O)[C@@H](NC(=O)[C@H](Cc1ccccc1)NC(=O)[C@@H](NC(=O)CNC(=O)[C@H](CCC(=O)O)NC(=O)CCCNC(=O)CCN1C(=O)CSC1=O)[C@@H](C)O)[C@@H](C)O)[C@@H](C)CC)C(C)C)C(N)=O)C(=O)O [Compound 51]	98%	0.1 to 1 nM	98%	0.1 to 1 nM	65%	1 to 10 nM	65%	1 to 10 nM		
